Each block holds one molecule with its values, some of them ahead of it.
Tests used:
MCF7 cells = test: CS-BLI cell viability assay, MCF7; assay type: cell-based
[1] = target: eIF4E (GST-eIF4E) / fluorescein-labelled eIF4G peptide (Homo sapiens, UniProt P06730); test: Fluorescence polarization assay for displacement of eIF4G peptide from eIF4E; assay type: binding; settings: three concentrations: 33, 100 and 300 μM
Kelly cells proteome = test: Global quantitative proteomics in Kelly cells; assay type: cell-based, human; settings: 1 μM, 5 hours, relative to DMSO
eIF4E = eIF4E (Homo sapiens, UniProt P06730); test: eIF4E degradation in HEK293T cells by immunoblotting; assay type: cell-based; settings: 0.1-10 μM for 24 h, and 1 μM for 0.5 h to 24 h
Chain of eIF4E (P06730 whole entry): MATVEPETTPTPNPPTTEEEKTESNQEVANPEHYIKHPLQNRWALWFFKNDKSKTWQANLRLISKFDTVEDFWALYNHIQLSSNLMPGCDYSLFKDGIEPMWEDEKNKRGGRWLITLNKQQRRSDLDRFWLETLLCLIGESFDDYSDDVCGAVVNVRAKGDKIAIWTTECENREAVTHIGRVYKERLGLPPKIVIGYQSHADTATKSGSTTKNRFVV

Cereblon (CRBN) = Cereblon (CRBN) (Homo sapiens, UniProt Q96SW2); test: Cellular Cereblon engagement assay; assay type: cell-based
Chain of Cereblon (CRBN) (Q96SW2 whole entry): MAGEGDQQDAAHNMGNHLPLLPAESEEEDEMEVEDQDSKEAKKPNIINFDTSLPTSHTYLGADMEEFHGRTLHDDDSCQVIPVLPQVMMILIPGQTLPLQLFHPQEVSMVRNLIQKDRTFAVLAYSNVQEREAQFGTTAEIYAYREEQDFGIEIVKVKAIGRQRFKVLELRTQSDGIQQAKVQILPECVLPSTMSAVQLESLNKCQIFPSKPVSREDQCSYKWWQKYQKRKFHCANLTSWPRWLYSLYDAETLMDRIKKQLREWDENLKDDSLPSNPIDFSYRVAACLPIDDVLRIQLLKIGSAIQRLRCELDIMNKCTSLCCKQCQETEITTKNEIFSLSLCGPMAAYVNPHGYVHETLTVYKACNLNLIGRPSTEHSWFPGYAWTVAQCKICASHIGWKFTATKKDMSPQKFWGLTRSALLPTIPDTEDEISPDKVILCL

GB1-eIF4E = GB1-eIF4E (Homo sapiens, UniProt P06730); test: Solution NMR titration; settings: 15N-labelled GB1-eIF4E 100 μM, compound 50, 100 and 300 μM
Chain of GB1-eIF4E (P06730 whole entry): as the sequence (P06730 whole entry) above

Chain of eIF4E (GST-eIF4E) / fluorescein-labelled eIF4G peptide (P06730 whole entry): as above

decrease in viability (IC50) at 72 h as compared to 24 h (MCF7 cells): more than 3 fold
SMILES: O=C(O)/C(Cc1ccccc1[N+](=O)[O-])=N\Nc1nc(-c2ccc(-c3ccccc3)cc2)cs1 [i4EG-BiP]

SMILES: O=C(COc1cccc2c1C(=O)N(C1CCC(=O)NC1=O)C2=O)NCCCCNC(=O)Cc1sc(N/N=C(\Cc2ccccc2[N+](=O)[O-])C(=O)O)nc1-c1ccc(Cl)c(Cl)c1 (centres unmarked) [d4E-1]
displacement of the 4G peptide compared with 4EGI-1 [1]: displaced the 4G peptide in a similar manner

SMILES: C/C(=N\Nc1nc(-c2ccc(-c3ccccc3)cc2)cs1)C(=O)NCCCCNc1cccc2c1C(=O)N(C1CCC(=O)NC1=O)C2=O (centres unmarked) [d4E-2]
change in protein expression, IMiD neo-substrates (Kelly cells proteome): downregulation of C2H2 zinc finger targets, SALL4, ZNF692 and ZNF827

decrease in viability (IC50) at 72 h as compared to 24 h (MCF7 cells): 2 fold
SMILES: O=C(O)C(Cc1ccccc1[N+](=O)[O-])=NNc1nc(-c2ccc(Cl)c(Cl)c2)cs1 [4EGI-1, reference compound]

SMILES: C/C(=N\Nc1nc(-c2ccc(Cl)c(Cl)c2)c(CC(=O)NCCNc2cccc3c2C(=O)N(C2CCC(=O)NC2=O)C3=O)s1)C(=O)OCOC(=O)C(C)(C)C (centres unmarked) [d4E-6]
degradation of eIF4E by immunoblotting (eIF4E): neither experiment showed significant degradation of eIF4E

fold less active than d4E-2 in cellular CRBN engagement (Cereblon (CRBN)): approximately 8 fold
SMILES: O=C1CCC(N2C(=O)c3cccc(NCCCCNC(=O)/C(=N\Nc4nc(-c5ccc(-c6ccccc6)cc5)cs4)c4ccccc4[N+](=O)[O-])c3C2=O)C(=O)N1 (centres unmarked) [d4E-3]

SMILES: C/C(=N\Nc1nc(-c2ccc(-c3ccccc3)cc2)cs1)C(=O)NCCNc1cccc2c1C(=O)N(C1CCC(=O)NC1=O)C2=O (centres unmarked) [d4E-4]
degradation of eIF4E by immunoblotting (eIF4E): neither experiment showed significant degradation of eIF4E
chemical shift perturbations (CSPs) on titration (GB1-eIF4E): Significant CSPs were observed in both cases at the binding interface

From PMC8846605 (European journal of medicinal chemistry, 2021)
